From patent US7687514B2, “Benzimidazole derivatives” (Banyu Pharmaceuticals Co., Ltd., priority 2002, dated 2010) come the findings set out here.

One data set addresses T1, human NPY Y5 receptor (Homo sapiens, UniProt Q15761).
T1 construct: expressed in transfected cells; host or cells: COS-7, CHO and LM(tk-)
T1 sequence (Q15761 1-445): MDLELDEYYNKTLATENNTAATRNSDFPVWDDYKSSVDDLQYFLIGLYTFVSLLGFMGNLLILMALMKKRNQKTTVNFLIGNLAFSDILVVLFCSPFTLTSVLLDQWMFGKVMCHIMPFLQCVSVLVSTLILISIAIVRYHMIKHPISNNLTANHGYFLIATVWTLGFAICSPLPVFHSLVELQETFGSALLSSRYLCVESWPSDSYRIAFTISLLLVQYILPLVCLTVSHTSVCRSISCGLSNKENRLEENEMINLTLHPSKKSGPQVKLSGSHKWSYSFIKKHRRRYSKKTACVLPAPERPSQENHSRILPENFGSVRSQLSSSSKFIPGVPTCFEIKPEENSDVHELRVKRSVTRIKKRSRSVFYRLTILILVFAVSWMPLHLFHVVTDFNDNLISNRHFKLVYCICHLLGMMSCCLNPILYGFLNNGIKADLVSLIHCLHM
The data set is described as follows: NPY binding inhibition test ([125I]peptide YY binding to membranes of NPY Y5 receptor expressing cells). The note with it: 25° C., 2 hours, membrane of NPY Y5 receptor expressing cells, read-out: IC50 against specific peptide YY binding. The source says: Pharmacological Test 1 (NPY Binding Inhibition Test)
cDNA sequence encoding human NPY Y5 receptor (c.f. International patent publication number WO96/16542) was cloned into expression vectors pcDNA3, pRc/RSV (made by Invitrogen Inc.) and pCI-neo (made by Promega Inc.). The expression vectors thus obtained were transfected to host cells COS-7, CHO and LM(tk-) (American Type Culture Collection) by cationic lipid method (Proceedings of the National Academy of Sciences of the United States of America, 84: 7413(1987)) to give NPY Y5 receptor expression cells.
A membrane sample prepared from the cells which expressed NPY Y5 receptor was incubated together with a test compound and [^125I]peptide YY (made by NEN) (20,000 cpm) in an assay buffer (25 mM Tris buffer, pH 7.4, containing 10 mM magnesium chloride, 1 mM phenylmethylsulfonyl fluoride, 0.1% bacitracin and 0.5% bovine serum albumin) at 25° C. for 2 hours, then filtered through a glass filter GF/C and washed with 5 mM Tris buffer (pH 7.4) containing 0.3% BSA. The radioactivity of the cake on the glass filter was measured. Non-specific binding was measured in the presence of 1 μM peptide YY, and a 50% Inhibitory Concentration (IC50) of the test compound against specific peptide YY binding was determined (Endocrinology, 131: 2090(1992)).

The nature of data set [1]: Pharmacokinetics test (plasma concentration after oral or intravenous administration). The note with it: rat, male SD rats. The data set is classed as in vivo. As for the experimental part:
Pharmacological Test 3 (Pharmacokinetics Test)
A test compound was orally or intravenously administered to male SD rats (7-10 weeks old, 200-400 g) which abstained from food overnight. About 100 μL of blood was collected from the tail vein at predetermined time, using a heparinized capillary. The blood was centrifuged (4° C., 6,000 r.p.m., 10 minutes) to collect the plasma, to which was added 3-fold amount of ethanol containing an internal standard. The mixture was stirred, allowed to stand at −20° C. for 20 minutes, and then centrifuged (4° C., 10,000 r.p.m., 10 minutes). The supernatant was analyzed by LC/MS/MS, and the concentration of the test compound in the plasma was measured using a relative calibration curve.

Data set [2] can be described thus: Brain/cerebrospinal fluid transport test. The class given is in vivo, male SD rats. The note with it: rat, 2 hours after oral administration (10 mg/kg); for concentration at 2 h: male, SD. As for the experimental part: Pharmacological Test 4 (Brain/Cerebrospinal Fluid Transport Test)
A test compound was orally or intravenously administered to male SD rats (7-10 weeks old, 200-400 g), and whole blood was collected from the abdominal aorta of said rats anesthetized with ether at predetermined time, using a heparin-treated syringe. Then, the head skin was cut open, and a dental 30 G needle was inserted between the cervical vertebrae, and it was further inserted into the cavum subarachnoideale. After 50 to 100 μL cerebrospinal fluid had been collected by a 1 ml-syringe through a tube connected to said dental 30 G needle, the brain was extracted. The blood sample was centrifuged (4° C., 6,000 r.p.m., 10 minutes) to collect the plasma, to which was added 3-fold amount of ethanol containing an internal standard, and the mixture was stirred. The brain sample was homogenized after addition of 2 ml water, an aliquot of the homogenate was taken and 3-fold amount of ethanol containing an internal standard was added thereto and stirred. The cerebrospinal fluid was stirred after adding 3-fold amount of ethanol containing an internal standard. The samples thus obtained were allowed to stand at −20° C. for 20 minutes, and then centrifuged (4° C., 12,000 g, 10 minutes). The supernatant was analyzed by LC/MS/MS, and the concentration of the test compound in the plasma, brain, and cerebrospinal fluid were measured by the method using a relative calibration curve.

The structures appear in SMILES notation. Where two headings read alike, the source gives them in different places.

Take `O=C1OC2(CCC(c3nc4ccc(-c5ccccc5F)nc4[nH]3)CC2)c2cnccc21` (stereo not drawn) [Example 27, Trans-5-(2-fluorophenyl)-2-[3-oxospiro[6-azaisobenzofuran-1(3H),1′-cyclohexan]-4′-yl]imidazo[4,5-b]pyridine]: the 50% inhibitory concentration (IC50) (as a rule, the concentration that gives 50% inhibition) on human NPY Y5 receptor amounted to 0.72 nM. Still for that read-out and setting: the result for `O=C1OC2(CCC(c3nc4cnc(-c5ccccc5F)nc4[nH]3)CC2)c2ccccc21` (stereo not drawn) [Example 8, Trans-2-(2-fluorophenyl)-8-[3′-oxospiro[cyclohexane-1,1′(3′H)-isobenzofuran]-4-yl]purine] reads 1.8 nM; that for `O=C1OC2(CCC(c3nc4cnc(-c5cc(F)ccc5F)nc4[nH]3)CC2)c2cnccc21` (stereo not drawn) [Example 17, Trans-2-(2,5-difluorophenyl)-8-[3-oxospiro[6-azaisobenzofuran-1(3H),1′-cyclohexan]-4′yl]purine], 2.7 nM.

Take `O=C1OC2(CCC(c3nc4cnc(-c5ccc(F)cc5)nc4[nH]3)CC2)c2cnccc21` (stereo not drawn) [Example 13, Trans-2-(4-fluorophenyl)-8-[3-oxospiro[6-azaisobenzofuran-1(3H),1′-cyclohexan]-4′-yl]purine]: the half-inhibitory concentration (IC50) on human NPY Y5 receptor was 2.9 nM. `O=C1OC2(CCC(c3nc4cnc(-c5ccccc5)nc4[nH]3)CC2)c2ccccc21` (stereo not drawn) [Example 6, trans-8-[3′-oxospiro[cyclohexane-1,1′(3′H)-isobenzofuran]-4-yl]-2-phenylpurine]: in data set [1] (oral or intravenous administration), the bioavailability (usually the share of a dose that reaches the circulation, judged against a reference dose that is usually intravenous) was found to be 78%. Moreover, in data set [1] (read-out: half-life in the blood (converted)), the half-life (in general, the time needed for the level to fall by half in the phase considered) is 3 h. Moreover, the concentration at 2 h in data set [2] (cerebrospinal fluid, read-out: concentration in the cerebrospinal fluid) came to 33 nM; in data set [2] (plasma, read-out: concentration in the plasma), 2770 nM. The “concentration in the brain” value in data set [2] came out at 1.10 nmol/g. In addition, the concentration for half-maximal inhibition (IC50) on human NPY Y5 receptor came to 2.2 nM. As for `O=C1OC2(CCC(c3nc4cnc(-c5ccccc5F)nc4[nH]3)CC2)c2cnc(F)cc21` (stereo not drawn) [Example 20, Trans-8-[5-fluoro-3-oxospiro[6-azaisobenzofuran-1(3H),1′-cyclohexan]-4′-yl]-2-(2-fluorophenyl)purine], the half-inhibitory concentration (IC50) on human NPY Y5 receptor was found to be 2.3 nM.
